Assay results reported in patent US10196588B2, “Detergent formulation for dishwashing machine” (Universiti Putra Malaysia (UPM), priority 2012, dated 2019).

Assays:
[1] = tested on: T1 lipase; assay: Lipase stability test: residual activity of T1 lipase after incubation with detergent components; format: biochemical, Geobacillus zalihae strain T1; details: for Stability of T1 lipase in the component (in words): incubation in 0.2% (w/v) component, 60° C., 30 min
Description: The compatibility of the T1 lipase with the other components of the formulated detergent was evaluated by incubating the enzyme in 0.2% (w/v) of those components, i.e., surfactants, bleaches, and alkalinity agents in a water bath (Protech, Malaysia) at 60° C. for 30 min. After 30 min, the enzyme was assayed for its residual activity.
J Am Oil Chem Soc. 63(1): p. 89-92]. A cupric acetate pyridine reagent was prepared by mixing 5% (w/v) copper (II) acetate with DI water and adjusting the solution pH to 6.1 with pyridine. The substrate emulsion used consisted of olive oil/50 mM of Glycine-NaOH buffer at pH 9.0 (1:1), which was homogenized using a homogenizer (Heidolph, Germany). […] After 30 min, the reaction was stopped by adding 5 ml isooctane and 1 ml 6 N HCl, and the mixture was vortexed for 30 s and left for 15 min. 4 ml of the upper layer of the mixture, which contained the fatty acids, was transferred to a test tube containing 1 ml of the cupric acetate pyridine reagent, and the mixture was vortexed for 30 s and left for 1 hour. The color of the solution was then evaluated colorimetrically by reading the OD using the Ultraspec 2100 Pro spectrophotometer (Amersham Bioscience, Sweden) at 715 nm. All assays were done in triplicates. 1 unit (U) of lipase activity was defined as the rate of 1 μmol of fatty acid released per minute under standard assay conditions.

[2] = Resulting pH of the alkalinity agents in solution; format: physicochemical; details: resulting pH of the alkalinity agent in solution
[3] = T1 lipase residual activity after 30 min at 60° C. in 0.2% (w/v) surfactant or bleach, w/o control = 100
[4] = T1 lipase residual activity after 30 min at 60° C. in 0.2% (w/v) alkalinity agent, Glycine-NaOH control = 100

Compound | Relative activity (%) [1, 3] [%] | Stability of T1 lipase in the component (in words) [1] | Relative activity (%) [1, 4] [%] | pH [2] | Stability of T1 lipase in the component (in words) ([1]; listed as carbonate)
CCCCCCCCCCCCCCCC[N+](C)(C)C.[Br-] [CTAB, cetyl trimethylammonium bromide] | 1.9 | strongly destabilized | – | – | –
CCCCCCCCCCCCOS(=O)(=O)[O-].[Na+] [SDS, sodium dodecyl sulfate] | 14 | destabilized | – | – | –
O=C([O-])O.[Na+] [Sodium bicarbonate, sodium bicarbonate] | – | – | 94 | 8.63 | –
O=C([O-])[O-].[Na+].[Na+] [Sodium carbonate, sodium carbonate] | – | lowest residual activities | 1 | 10.84 | greatly destabilized
O=C([O-])CC(O)(CC(=O)[O-])C(=O)[O-].[Na+].[Na+].[Na+] [Sodium citrate, sodium citrate] | – | did not greatly affect the stability | 48 | 8.30 | –
O=C([O-])[O-].O=C([O-])[O-].OO.OO.OO.[Na+].[Na+].[Na+].[Na+] [Sodium percarbonate, sodium percarbonate] | 0.3 | strongly destabilized | – | – | –
O=P(O)(O)OP(=O)(O)OP(=O)(O)O [Sodium tripolyphosphate, sodium tripolyphosphate] | – | lowest residual activities | 0 | 9.60 | –
CCCCCCCC/C=C\CCCCCCCC(=O)OCCOCC(OCCO)C1OCC(OCCO)C1OCCO (centres unmarked) [Tween 80, polysorbate 80] | 98 | highest stability | – | – | –
Polyethylene glycol 300 [PEG 300] | 61 | – | – | – | –
sodium perborate | 3.4 | strongly destabilized | – | – | –
